We go through 19 compounds from article PMC8305101, “Synthesis and Cytotoxicity Evaluation of Spirocyclic Bromotyrosine Clavatadine C Analogs” (Marine Drugs, 2021).

For series [1], the system named is human malignant melanoma A-375 cell line. Put plainly: Cytotoxicity in A-375 melanoma cells (CellTiter-Glo ATP viability). The format is cell-based. The following applies: for CC50 / cytotoxicity at 50 µM: Homo sapiens; for CC50: read-out: CC50 (µM) in A-375 Cells; for Selectivity Index (SI): ratio of CC50 values between Hs27 fibroblasts and A-375 melanoma cells, SD in parentheses. As to the method: (§1) Analysis of selectivity to cancer cells. The cells were seeded to white frame and clear bottom 96-well plates (Perkin Elmer) at a density of 10,000 cells/well for the human malignant melanoma A-375 cell line (ATCC CRL-1619) and 7500 cells/well for the human skin fibroblast Hs27 cell line (ATCC CRL-1634). The cells were grown at 37 °C, 5% CO2 until they reached 70–80% confluence (approximately 24 h). Stock solutions of test compounds and a positive control (camptothecin, Sigma-Aldrich, St. Louis, MO, USA) were prepared in DMSO and diluted into the assay medium (growth medium with 5% FBS) to the final concentration. Final DMSO concentration was 0.5% in all samples. The culture medium was removed from the plate and compounds added, 200 µL/well. After a 48-h incubation, the amount of ATP, which is directly proportional to the number of viable cells present in culture, was quantified using CellTiter-Glo® Luminescent Cell Viability kit (Promega, Madison, WI, USA), according to manufacturer’s instructions. Origin Graphing and Analysis, version 9.55 (OriginLab, Northampton, MA, USA), was used for determination of CC50 values. The cancer cell selectivity index was calculated as a ratio of CC50 values between Hs27 fibroblasts and A-375 melanoma cells. Standard deviation of selectivity indices was calculated using Equation (1) (1) σ(x¯/y¯)=(σ(x)/x¯)^2+(σ(y)/y¯)^2

Series [2] is described as follows: Cytotoxicity in Hs27 normal skin fibroblasts (CellTiter-Glo ATP viability). Format: cell-based. The following applies: human, 48-h incubation, mean (SD) of 2–3 independent experiments in triplicate. As to the method:
as §1
A general note: ATP-based viability assays read luminescence as a measure of living cells.

[3] abbreviates: A-375, 48 h, read-out: Primary Test Results (Cytotoxicity % at 50 µM in A-375 Cells), 50 µM, A-375 cells, 48-h incubation, single experiment with three technical replicates.
[4] abbreviates: read-out: CC50 (µM) in Hs27 Cells.
Setting [5] is: 50 µM, A-375 cells, 48-h incubation, single experiment with three technical replicates.

“And” between values parts separate entries of the source, which are not always exact repeats. Identical values can stand only once. Like-named read-outs stand apart in the source and are kept apart here.

Usually CC50 stands for the concentration at which the toxic effect on the cells reaches its halfway point. Consider `O=C1C=CC2(C=C1)CC(C(=O)Nc1cccnc1)=NO2` [Compound 26, 8-Oxo-N-(pyridin-3-yl)-1-oxa-2-azaspiro[4.5]deca-2,6,9-triene-3-carboxamide], for which the CC50 in series [1] (A-375, 48 h) was 2 µM. In addition, the cytotoxicity at 50 µM in series [1] (setting [3]) came to 99.2%. Also, in series [1], the “Selectivity Index (SI)” value was 1.0 (0.8). Also, in series [2] (setting [4]), the cytotoxic concentration (CC50) at 48 h worked out at 1.9 µM.
With `O=C1C=CC2(C=C1)CC(C(=O)NCc1cccnc1)=NO2` [Compound 35, 8-Oxo-N-(pyridin-3-ylmethyl)-1-oxa-2-azaspiro[4.5]deca-2,6,9-triene-3-carboxamide], the cytotoxic concentration (CC50) in series [1] (A-375, 48 h) was determined as 1.1 µM. Also, the cytotoxicity at 50 µM in series [1] (setting [3]) came to 97.5%. Besides, the “Selectivity Index (SI)” value in series [1] is reported as 2.3 (0.1). In addition, the CC50 at 48 h in series [2] (setting [4]) amounted to 2.5 µM.
On to `CN(C)C(=O)C1=NOC2(C=CC(=O)C=C2)C1` [Compound 12, N,N-Dimethyl-8-oxo-1-oxa-2-azaspiro[4.5]deca-2,6,9-triene-3-carboxamide], for which the CC50 in series [1] (A-375, 48 h) was found to be 2.1 µM. Also, the cytotoxicity at 50 µM in series [1] (setting [3]) was found to be 95.1%. Moreover, the “Selectivity Index (SI)” value in series [1] is given as 1.8 (0.6). For the same compound, the cytotoxic concentration (CC50) at 48 h in series [2] (setting [4]) turned out to be 3.8 µM.
For the compound `CNCCCOc1c(Br)cc(CCNC(=O)/C(Cc2cc(Br)c(OC)c(Br)c2)=N/O)cc1Br` [Purpurealidin I 3, Purpurealidin I, reference compound], the cytotoxicity at 50 µM in series [1] (50 µM, A-375 cells, 48-h incubation, single experiment with three technical replicates, read-out: Primary Test Results (Cytotoxicity % at 50 µM in A-375 Cells)) is 98.9%. In series [1] (A-375 cells, 48-h incubation, mean (SD) of 2–3 independent experiments in triplicate), the CC50 amounted to 3.7 µM. In series [1], the “Selectivity Index (SI)” value is on record as 1.3 (0.1). Also, in series [2] (Hs27 skin fibroblast cells), half-maximal cytotoxicity (CC50 at 48 h) was put at 4.7 µM.
On to `COc1ccc(NC(=O)C2=NOC3(C=C(Br)C(=O)C(Br)=C3)C2)cc1Cl` [Compound 21, 7,9-Dibromo-N-(3-chloro-4-methoxyphenyl)-8-oxo-1-oxa-2-azaspiro[4.5]deca-2,6,9-triene-3-carboxamide], for which the half-maximal cytotoxic concentration (CC50) in series [1] (A-375, 48 h) is 2.3 µM. The cytotoxicity at 50 µM in series [1] (setting [3]) came out at 101%. Also, the “Selectivity Index (SI)” value in series [1] is listed as 2.2 (0.3). In addition, the 50% cytotoxic concentration (CC50) at 48 h in series [2] (setting [4]) was determined as 5 µM.
The like results for `O=C(NCc1cccnc1)C1=NOC2(C=C(Br)C(=O)C(Br)=C2)C1` [Compound 36, 7,9-Dibromo-8-oxo-N-(pyridin-3-ylmethyl)-1-oxa-2-azaspiro[4.5]deca-2,6,9-triene-3-carboxamide] were, in that order, 3.4 µM, 101%, 1.8 (0.2) and 6.1 µM.
On to `O=C1C=CC2(C=C1)CC(C(=O)NCCc1c[nH]c3ccccc13)=NO2` [Compound 22, N-[2-(1H-Indol-3-yl)ethyl]-8-oxo-1-oxa-2-azaspiro[4.5]deca-2,6,9-triene-3-carboxamide], for which, in series [1] (A-375, 48 h), the CC50 came to 0.7 µM. Also, the cytotoxicity at 50 µM in series [1] (setting [3]) came out at 99.8%. For the same compound, in series [1], the “Selectivity Index (SI)” value is 1.0 (0.3). For the same compound, the CC50 at 48 h in series [2] (setting [4]) turned out to be 0.7 µM.
With `N=C(N)NCCCCNC(=O)C1=NOC2(C=CC(=O)C=C2)C1` [Compound 11, N-(4-Guanidinobutyl)-8-oxo-1-oxa-2-azaspiro[4.5]deca-2,6,9-triene-3-carboxamide], in series [1] (setting [5]), the “Primary Test Results (Cytotoxicity % at 50 µM in A-375 Cells)” value was “less than 25% and −8.2%”.
`O=C1C=CC2(C=C1)CC(C(=O)Nc1cc(Cl)cc(Cl)c1)=NO2` [Compound 18, N-(3,5-Dichlorophenyl)-8-oxo-1-oxa-2-azaspiro[4.5]deca-2,6,9-triene-3-carboxamide]: in series [1] (A-375, 48 h), the CC50 came out at 0.4 µM. Further, the cytotoxicity at 50 µM in series [1] (setting [3]) was 100%. The “Selectivity Index (SI)” value in series [1] was 2.0 (0.8). Also, in series [2] (setting [4]), the CC50 at 48 h worked out at 0.8 µM.
Take `O=C(Nc1cccnc1)C1=NOC2(C=C(Br)C(=O)C(Br)=C2)C1` [Compound 27, 7,9-Dibromo-8-oxo-N-(pyridin-3-yl)-1-oxa-2-azaspiro[4.5]deca-2,6,9-triene-3-carboxamide]: in series [1] (A-375, 48 h), the CC50 stood at 3 µM. Further, the cytotoxicity at 50 µM in series [1] (setting [3]) worked out at 101%. The “Selectivity Index (SI)” value in series [1] is 2.2 (0.5). The CC50 at 48 h in series [2] (setting [4]) was 6.6 µM.
Taken in the same sequence, the figures for `O=C(Nc1ccc(C(F)(F)F)cn1)C1=NOC2(C=C(Br)C(=O)C(Br)=C2)C1` [Compound 30, 7,9-Dibromo-8-oxo-N-[5-(trifluoromethyl)pyridin-2-yl]-1-oxa-2-azaspiro[4.5]-deca-2,6,9-triene-3-carboxamide] were 3.6 µM, 98.1%, 0.6 (0.2) and 2.3 µM.
The like results for `Cn1nc(-c2ccc(Cl)cc2)cc1NC(=O)C1=NOC2(C=C(Br)C(=O)C(Br)=C2)C1` [Compound 41, 7,9-Dibromo-N-[3-(4-chlorophenyl)-1-methyl-1H-pyrazol-5-yl]-8-oxo-1-oxa-2-azaspiro[4.5]deca-2,6,9-triene-3-carboxamide] were, in that order, 1.3 µM, 97.6%, 1.1 (0.8) and 1.4 µM.
For the compound `CC(C)N(C)C(=O)C1=NOC2(C=C(Br)C(=O)C(Br)=C2)C1` [Compound 14, 7,9-Dibromo-N-isopropyl-N-methyl-8-oxo-1-oxa-2-azaspiro[4.5]deca-2,6,9-triene-3-carboxamide], the CC50 in series [1] (A-375, 48 h) is 7.2 µM. Besides, in series [1] (setting [3]), the cytotoxicity at 50 µM amounted to 99.9%. Moreover, the cytotoxic concentration (CC50) at 48 h in series [2] (setting [4]) came to 7.8 µM.
The like results for `CN(C)C(=O)C1=NOC2(C=C(Br)C(=O)C(Br)=C2)C1` [Compound 13, 7,9-Dibromo-N,N-dimethyl-8-oxo-1-oxa-2-azaspiro[4.5]deca-2,6,9-triene-3-carboxamide] were, in that order, 3.7 µM, 99.8% and 7.2 µM.
Turning to `O=C(Nc1ccc(C(F)(F)F)nc1)C1=NOC2(C=C(Br)C(=O)C(Br)=C2)C1` [Compound 31, 7,9-Dibromo-8-oxo-N-[6-(trifluoromethyl)pyridin-3-yl]-1-oxa-2-azaspiro[4.5] deca-2,6,9-triene-3-carboxamide], the CC50 in series [1] (A-375, 48 h) stood at 5.3 µM. Also, the cytotoxicity at 50 µM in series [1] (setting [3]) came out at 98.6%. In series [1], the “Selectivity Index (SI)” value is 0.4 (0.1). For the same compound, the half-maximal cytotoxic concentration (CC50) at 48 h in series [2] (setting [4]) turned out to be 2.1 µM.
Taken in the same sequence, the figures for `O=C1C=CC2(C=C1)CC(C(=O)N1CCC(O)CC1)=NO2` [Compound 16, 3-(4-Hydroxypiperidine-1-carbonyl)-1-oxa-2-azaspiro[4.5]deca-2,6,9-trien-8-one] were 4.9 µM, 97.1%, 1.5 (0.2) and 7.4 µM.
Taken in the same sequence, the figures for `O=C(NCCc1cccnc1)C1=NOC2(C=C(Br)C(=O)C(Br)=C2)C1` [Compound 34, 7,9-Dibromo-8-oxo-N-[2-(pyridin-3-yl)ethyl]-1-oxa-2-azaspiro[4.5]deca-2,6,9-triene-3-carboxamide] were 5.1 µM, 97%, 1.7 (0.6) and 8.8 µM.
For “7,9-Dibromo-8-oxo-N’-picolinoyl-1-oxa-2-azaspiro[4.5]deca-2,6,9-triene-3-carbohydrazide [Compound 39]”, the “Primary Test Results (Cytotoxicity % at 50 µM in A-375 Cells)” value in series [1] (setting [5]) amounted to 75.2%.
Consider `O=C1C=CC2(C=C1)CC(C(=O)NNC(=O)CN1CCOCC1)=NO2` [Compound 17, N’-(2-Morpholinoacetyl)-8-oxo-1-oxa-2-azaspiro[4.5]deca-2,6,9-triene-3-carbohydrazide], for which, in series [1] (setting [5]), the “Primary Test Results (Cytotoxicity % at 50 µM in A-375 Cells)” value came to 20.8%. Besides, in series [1] (setting [3]), the cytotoxicity at 50 µM is less than 25%.
